Results published in patent US5691310A, “Methods of treatment using proANF peptides” (priority 1995, dated 1997).

Key:
[1] = tested on: renal medullary Na+-K+-ATPase; assay: inhibition of renal medullary Na+-K+-ATPase activity; type: biochemical; details: for inhibition of renal medullary Na+-K+-ATPase activity: 10^-11 M
[2] = tested on: particulate guanylate cyclase; assay: particulate guanylate cyclase activity in the kidney; type: biochemical; details: 1 μM; whole kidney homogenates, renal cortical and medullary membranes, isolated distal nephron
Procedure: Testing is also carried out to determine biologic effects of these peptides by measuring their effects on particulate guanylate activity in the kidney.

[3] = tested on: human subjects with class II New York Heart Association congestive heart failure; assay: infusion into human subjects with congestive heart failure; type: in vivo; details: for diuretic properties (in words): congestive heart failure patients; for urine output increase at the end of the 60 minute infusion: congestive heart failure, 0.1 μg/kg body wt/minute; for increase of sodium excretion: human subjects with congestive heart failure
Procedure: Human proANF's 1-30, 31-67, 79-98, and 99-126 (i.e., ANF) were infused into human subjects with class II New York Heart Association congestive heart failure. An identical protocol to that used in example V where these peptides were infused into healthy human subjects was utilized. (See Attachment C for a detailed description of this protocol). The human subjects with congestive heart failure received an identical dose (0.1 μg/kg body wt/minute for 60 minutes) that the healthy human subjects received.

Munich-Wistar rats = assay: rat clearance model (diuresis and salt excretion); type: in vivo
Procedure: The same three peptides and ANF from Example I are tested using the rat clearance model. Six control rats and six experimental Munich-Wistar rats, each weighing 150-200 grams, are used for each peptide, with catheters being placed in both jugular veins and in the femoral artery. The ureters are cannulated for simultaneous urine collections with femoral artery blood collections.
After inserting the catheters, a stabilization of one hour is allowed. A 10 μg/kg bolus of each of the respective human sequences of the peptides is given via the jugular vein to six experimental rats followed by a sustaining infusion of 0.1 μg/kg/min for 60 minutes. Blood and urine samples are collected at 20 minute intervals during this 60 minute infusion. In both the control and experimental animals, hematocrits and plasma sodium values remained at the same levels pre- and post-infusion while blood pressure decreased with each of these peptides (see Attachment B).

healthy human subjects = assay: infusion into healthy human subjects; type: in vivo; details: healthy humans; for urine volume / urine flow (in words): 100 ng/kg body wt per minute for 1 hour i.v.; for sodium excretion compared to baseline (in words): 100 ng/kg body wt per minute for 60 minutes; for systolic and diastolic blood pressures: 100 ng/kg/min i.v. for 60 minutes
Procedure: Infusion of these peptides into healthy human subjects was performed as follows: Human pro-ANF 1-30, pro-ANF 31-67, and pro-ANF 79-98, and hANF (i.e., pro-ANF […], were synthesized by Peninsula Laboratories (Belmont, Calif.). High pressure liquid chromatography (HPLC) analysis was performed on a sample of each of the four peptides to ensure purity. The peptides were dissolved in a sterile 0.9% saline solution to a concentration of 100 μg/ml and dispensed in 2 and 5 ml aliquots into sealed sterile vials. At the time of dispensing, randomly selected vials were tested for pyrogens and sterility. Prior to labeling the vials, the actual peptide content of the dispensed solution were determined by direct radioimmunoassay to account for any possible absorption of the respective peptides to the walls of the vials. All vials were then stored at -80° C. until thawed for individual study.
Normal healthy subjects were chosen on the basis of age (between 20 and 50 years), physical examination and biochemical screenings. The subjects consumed their normal diets prior to testing. The subjects fasted overnight and were tested in the morning in the seated position. Intravenous catheters were placed bilaterally for the administration of pro-hANF 1-30, pro-hANF 31-67, pro-hANF 79-98 and hANF [pro-hANF 99-126] and for blood sampling. After completion of a 45-minute equilibration period, there were three 60-minute phases of the study: baseline, experimental infusion (60 minutes) and recovery (3 hours). The baseline phase consisted of two 30 minute urine collection periods, the experimental phase consisted of three 20 minute urine and plasma collection periods, and the recovery phase consisted of two 30 minute urine and plasma collection periods each hour for three hours post-infusion. Urine output was replaced on a milliliter per milliliter basis throughout the study by administering oral water or orange juice. Urine samples were obtained by voiding at the designated collection periods.
The 36 subjects were divided into 6 groups. One group (i.e., the control group) received a placebo infusion of 0.9% sodium chloride during the experimental infusion phase. […] The four remaining groups of six subjects each received human pro-hANF 1-30, pro-hANF 31-67, pro-hANF 79-98 and hANF. The four groups received the peptides by continuous infusion at the rate of 0.1 μg/kg per minute. The volume administered per hour during the experimental infusion phase was 10 ml for all four peptides and the placebo. All infusions were given by a constant-rate infusion pump, with the final concentrations of prohANFs adjusted for the subjects' body weight. The subjects heart rate and cuff blood pressure were taken at 5 minute intervals throughout the study. The excreted urine was analyzed for sodium concentration.

[4] = overcoming the negative ionotropic effect of Verapamil
[5] = tested on: particulate guanylate cyclase; assay: cyclic GMP / particulate guanylate cyclase activation in cultured smooth muscle cells and porcine aorta; type: cell-based; details: cultured smooth muscle cells
porcine aorta = assay: vasodilation of porcine aortic strips preconstricted with 0.3 micromolar phenylephrine; parameters: species or system pig; details: for increase in cyclic GMP levels over baseline levels: associated with vasodilation of porcine aorta; for vasodilation: porcine aorta
Procedure: 30 Kg pigs are sacrificed, and aortic strips are harvested. The strips are attached to F-60 transducer (Narco-BioSystems, Houston, Tex.) and attached to a physiography (Narco-BioSystems) while being submerged in a muscle tissue bath comprising a Krebs Ringer solution at 37° C., with 95% 02 -5% CO2, bubbled through the bath. Percentage vasodilation is measured versus time (as reported in FIG. 1) after preconstriction with 0.3 micromolar phenylephrine.

[6] = molecular target: particulate guanylate cyclase of porcine aorta and cultured smooth muscle cells (porcine (aorta); not stated for the cultured smooth muscle cells)
[7] = tested on: rat or other vertebrate species; assay: biologic effects of peptides of the rat ANF prohormone; type: in vivo; details: peptides of the rat sequence, in the rat or other vertebrate species
Source text: At first it was thought that only the C-terminus (i.e., ANF) of ANF prohormone circulated. Before any portion of the rest of the prohormone was known to circulate Dr. Frossman patented the whole rat prohormone which he called Cardiodilatin and portion(s) thereof (U.S. Pat. No. 4,751,284). In this patent Dr. Frossman patented the rat sequence of the ANF prohormone. In his patent he stated that parts of the whole prohormone had activity if the C-terminal end (i.e., ANF) was attached to it. In publications he has stated that the rest of the rat prohormone only has activity if the C-terminus (i.e., ANF with its intact ring structure) of the rat prohormone is attached to it (Frossman W.G., Contr. Nephrol. 50:1-13, 1986) (see Attachment A). Dr. Frossman has never published that other peptide(s) originating from the rat ANF prohormone that he patented have any biologic activity by themselves. Dr. Frossman has further stated on page 11 of Attachment A "I think that the 28 a.a. […] It has been over 10 years since Frossmann submitted his patent and he has never published that any portion of cardiodilatin (i.e., rat ANF prohormone) has any biologic activity if the respective portion is not attached to the ANF portion of cardiodilatin.

[8] = period A, control period (before peptide)
[9] = period B, 1st 60min experimental period, 10 μg/kg bolus then 0.1 μg/kg/min
[10] = period C, 2nd 60min experimental period

Question: For `COc1ccc2cc([C@H](C)C(=O)O)ccc2c1` [Naproxen, reference compound], which “effect on the peptides' inhibition of renal medullary Na+-K+-ATPase” value ([1]; 0.5 mM) is on record?
Answer: The value was “completely blocked each of these peptides'effects on renal medullary Na+-K+-ATPase”.

Question: What does the source list for “H-NPMYNAVSNADLMDFKNLLDHLEEKMPLED-OH [proANF 1-30, H-Asn-Pro-Met-Tyr-Asn-Ala-Val-Ser-Asn-Ala-Asp-Leu-Met-Asp-Phe-Lys-Asn-Leu- Leu-Asp-His-Leu-Glu-Glu-Lys-Met-Pro-Leu-Glu-Asp-OH]”?
Answer: inhibition of renal medullary Na+-K+-ATPase activity [1]: Inhibition of renal medullary Na+-K+-ATPase activity; particulate guanylate cyclase activity [2]: enhance particulate guanylate cyclase; diuretic properties (in words) [3]: stronger diuretic properties than ANF; urine output increase at the end of the 60 minute infusion [3]: 3- to 6 fold; increase of sodium excretion [3]: three-to-eight; UNa V, urinary sodium excretion rate (Munich-Wistar rats; [8]): 36.37 ± 8.09 μeq-min^-1 -g kidney wt^-1; UNa V, urinary sodium excretion rate (Munich-Wistar rats; [9]): 224.30 ± 60.34 μeq-min^-1 -g kidney wt^-1; UNa V, urinary sodium excretion rate (Munich-Wistar rats; [10]): 384.98 ± 124.39 μeq-min^-1 -g kidney wt^-1; increase of urine flow (healthy human subjects): 4-12 fold; urine volume / urine flow (in words) (healthy human subjects): increase in urine volume; sodium excretion compared to baseline (in words) (healthy human subjects): significantly (P<0.05) increased sodium excretion; systolic and diastolic blood pressures (healthy human subjects): decreasing systolic and diastolic blood pressures; negative ionotropic (slowing heartbeat) effect of Verapamil [4]: can overcome the negative ionotropic (slowing heartbeat) effect; cyclic GMP levels [5]: increase cyclic GMP levels; increase in cyclic GMP levels over baseline levels (porcine aorta): four-to-five; vasodilation (porcine aorta): cause vasodilation

Question: What does the source list for “H-SSDRSALLKSKLRALLTAPR-OH [proANF 79-98, H-Ser-Ser-Asp-Arg-Ser-Ala-Leu-Leu-Lys-Ser-Lys-Leu-Arg-Ala-Leu-Leu-Thr-Ala- Pro-Arg-OH]”?
Answer: inhibition of renal medullary Na+-K+-ATPase activity [1]: Inhibition of renal medullary Na+-K+-ATPase activity; particulate guanylate cyclase activity [2]: enhance particulate guanylate cyclase; diuretic properties (in words) [3]: stronger diuretic properties than ANF; urine output increase at the end of the 60 minute infusion [3]: 3- to 6 fold; increase of sodium excretion [3]: no significant increase in sodium excretion; UNa V, urinary sodium excretion rate (Munich-Wistar rats; [8]): 90.88 ± 77.76 μeq-min^-1 -g kidney wt^-1; UNa V, urinary sodium excretion rate (Munich-Wistar rats; [9]): 363.98 ± 261.85 μeq-min^-1 -g kidney wt^-1; UNa V, urinary sodium excretion rate (Munich-Wistar rats; [10]): 564.22 ± 315.48 μeq-min^-1 -g kidney wt^-1; increase of urine flow (healthy human subjects): 4-12 fold; urine volume / urine flow (in words) (healthy human subjects): increase in urine volume; sodium excretion compared to baseline (in words) (healthy human subjects): each of these respective peptides except proANF 79-98 significantly (P<0.05) increased sodium excretion; systolic and diastolic blood pressures (healthy human subjects): decreasing systolic and diastolic blood pressures; negative ionotropic (slowing heartbeat) effect of Verapamil [4]: can overcome the negative ionotropic (slowing heartbeat) effect; cyclic GMP levels [5]: increase cyclic GMP levels; increase in cyclic GMP levels over baseline levels (porcine aorta): four-to-five; vasodilation (porcine aorta): cause vasodilation

Question: With “angiotensin II [comparison peptide in the Na+-K+-ATPase test, reference compound]” as the molecule, how does the “inhibition of renal medullary Na+-K+-ATPase activity” value [1] read?
Answer: Its value is “Inhibition of renal medullary Na+-K+-ATPase activity”.

Question: For “human atrial natriuretic factor (ANF) (from UniProt P01160) (peptide)”, which half maximal activation (ED50) of guanylate cyclase activity [6] is on record?
Answer: The half maximal activation (ED50) of guanylate cyclase activity was 10 nM.

Question: With “rat proANF 1-30: peptide consisting of amino acids 1-30 from the rat ANF prohormone (NPVYSAVSNTDLMDFKNLLDHLEEKMPVED; UniProt P01161 25-54, looked up, fragment)” as the molecule, how does the “biologic effect(s) (blood pressure lowering, sodium excretion or diuretic effects)” value [7] read?
Answer: The value was “no biologic effect(s)”.

Question: Which “biologic effect(s) (blood pressure lowering, sodium excretion or diuretic effects)” value [7] does the source give for “rat proANF 31-67: peptide consisting of amino acids 31-67 from the rat ANF prohormone (EVMPPQALSEQTDEAGAALSSLSEVPPWTGEVNPSQR; UniProt P01161 55-91, looked up, fragment)” here?
Answer: The value was “no biologic effect(s)”.

Question: With “rat proANF 79-98: peptide consisting of amino acids 79-98 from the rat ANF prohormone (PSDRSALLKSKLRALLAGPR; UniProt P01161 103-122, looked up, fragment)” as the molecule, how does the “biologic effect(s) (blood pressure lowering, sodium excretion or diuretic effects)” value [7] read?
Answer: The value was “no biologic effect(s)”.

Question: Which half maximal activation (ED50) of guanylate cyclase activity [6] does the source give for H-SSDRSALLKSKLRALLTAPR-OH [human pro-ANF (79-98)] here?
Answer: Its half maximal activation (ED50) of guanylate cyclase activity is 10 nM.
